One block for each compound: values may come before it.
Experiments:
SMYD3 [1] = target: T1, SMYD3 (Homo sapiens (Human), UniProt Q9H7B4); assay: SMYD3 cell assay (Trimethyl-MEKK2 In-Cell Western in 293T/17 cells); assay type: cell-based
How it was run: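 In-Cell Western readout: methanol-fixed cells stained for trimethyl-MEKK2 and flag tag, ratio per well normalized to DMSO and background controls.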

SMYD3 [2] = target: T1, SMYD3; assay: SMYD3 biochemical assay (SPA, 3H-SAM methylation of MEKK2 protein substrate)
How it was run: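 Enzyme: untagged full-length human SMYD3 from E. coli; substrate GST-tagged MEKK2 from insect cells. Buffer 25 mM Tris-Cl pH 8.0, 1 mM TCEP, 0.005% BSG/Tween 20. 30 min compound–enzyme preincubation at RT; 3H-SAM/MEKK2 start; stop with cold SAM (100 uM final); SPA readout in cpm.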

[3] = Table 2A, read-out: SMYD3 Cell IC50
[4] = Table 2A, read-out: SMYD3 Biochem IC50
[5] = average of n = 1 to n = 50, read-out: SMYD3 Cell IC50
[6] = average of n = 1 to n = 50, read-out: SMYD3 Biochem IC50
[7] = read-out: SMYD3 Cell IC50 (μM)*
[8] = read-out: SMYD3 Biochem IC50 (μM)*
[9] = IC50 values are an average of n = 1 to n = 50, read-out: SMYD3 Cell IC50*
[10] = IC50 values are an average of n = 1 to n = 50, read-out: SMYD3 Biochem IC50*
[11] = 293T/17 cells, read-out: SMYD3 Cell IC50 (μM)*
[12] = Table 1A, IC50 values are an average of n = 1 to n = 50, read-out: SMYD3 Cell IC50

T1 sequence (Q9H7B4 whole entry): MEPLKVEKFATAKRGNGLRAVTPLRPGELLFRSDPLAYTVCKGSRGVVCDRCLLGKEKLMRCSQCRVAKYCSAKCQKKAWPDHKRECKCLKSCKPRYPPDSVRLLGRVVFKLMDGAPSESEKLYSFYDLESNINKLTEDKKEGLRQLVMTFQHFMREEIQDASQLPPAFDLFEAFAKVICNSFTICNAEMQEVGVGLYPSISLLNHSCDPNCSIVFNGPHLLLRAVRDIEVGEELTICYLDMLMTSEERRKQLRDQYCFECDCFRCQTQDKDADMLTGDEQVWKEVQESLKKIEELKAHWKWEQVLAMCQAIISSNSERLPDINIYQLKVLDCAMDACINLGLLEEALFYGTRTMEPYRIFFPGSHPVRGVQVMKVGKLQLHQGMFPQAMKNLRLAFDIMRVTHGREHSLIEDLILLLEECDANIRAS

SMILES: CN(CCN)CCCS(=O)(=O)N1[C@@H]2CC[C@H]1C[C@@H](NC(=O)c1cc(C3CC3)on1)C2 [compound 586, N-((1R,3r,5S)-8-((3-((2-aminoethyl)(methyl)amino)propyl)sulfonyl)-8-azabicyclo[3.2.1]octan-3-yl)-5-cyclopropylisoxazole-3-carboxamide]
- IC50 (SMYD3 [1]; [3]): 0.263 µM
- IC50 (SMYD3 [2]; [4]): 0.0107 µM

- IC50 (SMYD3 [1]; [5]): 1.07 µM
- IC50 (SMYD3 [2]; [6]): 0.0866 µM
SMILES: C[C@@H]1C[C@H](NC(=O)c2cc(C3CC3)on2)CCN1C(=O)c1ccc([C@@H](C)N)cc1 [compound 664, N-((2R,4R)-1-(4-((R)-1-aminoethyl)benzoyl)-2-methylpiperidin-4-yl)-5-cyclopropylisoxazole-3-carboxamide]

- IC50 (SMYD3 [1]; [3]): 0.0212 µM
- IC50 (SMYD3 [2]; [4]): 0.0012 µM
SMILES: CNC1CCN(S(=O)(=O)N2CC[C@H](NC(=O)c3cc(C4CC4)on3)C[C@@H]2C)CC1 [compound 535, 5-cyclopropyl-N-((2S,4S)-2-methyl-1-((4-(methylamino)piperidin-1-yl)sulfonyl)piperidin-4-yl)isoxazole-3-carboxamide]

- IC50 (SMYD3 [1]; [7]): 1.24 µM
- IC50 (SMYD3 [2]; [8]): 0.0559 µM
SMILES: C[C@@H]1C[C@H](NC(=O)c2cc(C3CC3)on2)CCN1S(=O)(=O)CCCN [compound 189, N-((2R,4R)-1-((3-aminopropyl)sulfonyl)-2-methylpiperidin-4-yl)-5-cyclopropylisoxazole-3-carboxamide]

- IC50 (SMYD3 [1]; [9]): 0.697 µM
- IC50 (SMYD3 [2]; [10]): 0.12 µM
SMILES: C[C@H]1C[C@@H](NC(=O)c2cc(C3CC3)on2)CCN1S(=O)(=O)N1CCN(C)C[C@@H]1C [compound 980, 5-cyclopropyl-N-((2S,4S)-1-(((S)-2,4-dimethylpiperazin-1-yl)sulfonyl)-2-methylpiperidin-4-yl)isoxazole-3-carboxamide]

SMILES: O=C(N[C@H]1C[C@H]2CC[C@@H](C1)N2S(=O)(=O)CC1CCN(CCO)CC1)c1cc(C2CC2)on1 [compound 531, 5-cyclopropyl-N-((1R,3r,5S)-8-(((1-(2-hydroxyethyl)piperidin-4-yl)methyl)sulfonyl)-8-azabicyclo[3.2.1]octan-3-yl)isoxazole-3-carboxamide]
- IC50 (SMYD3 [1]; [3]): 0.0331 µM
- IC50 (SMYD3 [2]; [4]): 0.0009 µM

- IC50 (SMYD3 [1]; [11]): 33 µM
- IC50 (SMYD3 [2]; [8]): 1.9 µM
SMILES: NCCCC(=O)N1CC[C@@H](NC(=O)c2cc(C3CC3)on2)C[C@@H]1Cc1ccccc1 [compound 334, N-((2S,4R)-1-(4-aminobutanoyl)-2-benzylpiperidin-4-yl)-5-cyclopropylisoxazole-3-carboxamide]

- IC50 (SMYD3 [1]; [7]): 1.93 µM
- IC50 (SMYD3 [2]; [8]): 0.0968 µM
SMILES: O=C(NC1CCN(C(=O)CC2CCNCC2)C(Cc2ccccc2)C1)c1cc(C2CC2)on1 (stereo not shown) [compound 109, N-(2-benzyl-1-(2-(piperidin-4-yl)acetyl)piperidin-4-yl)-5-cyclopropylisoxazole-3-carboxamide]

SMILES: CNCCNCCS(=O)(=O)N1[C@@H]2CC[C@H]1C[C@@H](NC(=O)c1cc(C3CC3)on1)C2 [compound 605, 5-cyclopropyl-N-((1R,3r,5S)-8-((2-((2-(methylamino)ethyl)amino)ethyl)sulfonyl)-8-azabicyclo[3.2.1]octan-3-yl)isoxazole-3-carboxamide]
- IC50 (SMYD3 [1]; [3]): 0.302 µM
- IC50 (SMYD3 [2]; [4]): 0.0175 µM

- IC50 (SMYD3 [1]; [5]): 3.04 µM
- IC50 (SMYD3 [2]; [6]): 0.297 µM
SMILES: CN(C1CCNCC1)S(=O)(=O)N1CC[C@H](NC(=O)c2cc(C3CC3)on2)C[C@H]1Cc1ccccc1 [compound 715, N-((2R,4S)-2-benzyl-1-(N-methyl-N-(piperidin-4-yl)sulfamoyl)piperidin-4-yl)-5-cyclopropylisoxazole-3-carboxamide]

SMILES: O=C(N[C@@H]1C[C@H]2CC[C@@H](C1)N2S(=O)(=O)CCCN1CCOCC1)c1cc(C2CC2)on1 [compound 495, 5-cyclopropyl-N-((1R,3s,5S)-8-((3-morpholinopropyl)sulfonyl)-8-azabicyclo[3.2.1]octan-3-yl)isoxazole-3-carboxamide]
- IC50 (SMYD3 [1]; [12]): > 10 µM
- IC50 (SMYD3 [2]; Table 1A, IC50 values are an average of n = 1 to n = 50, read-out: SMYD3 Biochem IC50): > 10 µM

SMILES: CNc1ccc(S(=O)(=O)N2CC[C@H](NC(=O)c3cc(C4CC4)on3)C[C@@H]2C)cn1 [compound 446, 5-cyclopropyl-N-((2S,4S)-2-methyl-1-((6-(methylamino)pyridin-3-yl)sulfonyl)piperidin-4-yl)isoxazole-3-carboxamide]
- IC50 (SMYD3 [1]; [11]): 2.25 µM
- IC50 (SMYD3 [2]; [8]): 0.89 µM

SMILES: O=C(N[C@H]1C[C@H]2CC[C@@H](C1)N2S(=O)(=O)N1CC2CCC(C1)N2CCCC(F)(F)F)c1cc(C2CC2)on1 [compound 914, 5-cyclopropyl-N-((1R,3r,5S)-8-((8-(4,4,4-trifluorobutyl)-3,8-diazabicyclo[3.2.1]octan-3-yl)sulfonyl)-8-azabicyclo[3.2.1]octan-3-yl)isoxazole-3-carboxamide]
- IC50 (SMYD3 [1]; read-out: SMYD3 Cell IC50*): 0.299 µM
- IC50 (SMYD3 [2]; read-out: SMYD3 Biochem IC50*): 0.0229 µM

SMILES: CN1CCC[C@H]1CS(=O)(=O)N1[C@@H]2CC[C@H]1C[C@@H](NC(=O)c1cc(C3CC3)on1)C2 [compound 979, 5-cyclopropyl-N-((1R,3S,5S)-8-((((S)-1-methylpyrrolidin-2-yl)methyl)sulfonyl)-8-azabicyclo[3.2.1]octan-3-yl)isoxazole-3-carboxamide]
- IC50 (SMYD3 [1]; [9]): 0.436 µM
- IC50 (SMYD3 [2]; [10]): 0.119 µM

SMILES: O=C(N[C@H]1C[C@H]2CC[C@@H](C1)N2S(=O)(=O)CC1CCN(Cc2ccc(F)cc2)CC1)c1cc(C2CC2)on1 [compound 778, 5-cyclopropyl-N-((1R,3r,5S)-8-(((1-(4-fluorobenzyl)piperidin-4-yl)methyl)sulfonyl)-8-azabicyclo[3.2.1]octan-3-yl)isoxazole-3-carboxamide]
- IC50 (SMYD3 [1]; read-out: SMYD3 Cell IC50*): 0.0447 µM
- IC50 (SMYD3 [2]; read-out: SMYD3 Biochem IC50*): 0.00118 µM

SMILES: CCC1CN(S(=O)(=O)N2[C@@H]3CC[C@H]2C[C@@H](NC(=O)c2cc(C4CC4)on2)C3)CCN1 (stereo partly drawn) [compound 636, 5-cyclopropyl-N-((1R,3r,5S)-8-((3-ethylpiperazin-1-yl)sulfonyl)-8-azabicyclo[3.2.1]octan-3-yl)isoxazole-3-carboxamide]
- IC50 (SMYD3 [1]; [5]): 0.365 µM
- IC50 (SMYD3 [2]; [6]): 0.0332 µM

SMILES: C[C@@H]1C[C@H](NC(=O)c2cc(C3CC3)on2)CCN1S(=O)(=O)c1ccc(N(C)CCN2CCOCC2)nc1 [compound 460, 5-cyclopropyl-N-((2R,4R)-2-methyl-1-((6-(methyl(2-morpholinoethyl)amino)pyridin-3-yl)sulfonyl)piperidin-4-yl)isoxazole-3-carboxamide]
- IC50 (SMYD3 [1]; [11]): > 10 µM
- IC50 (SMYD3 [2]; [8]): > 10 µM

- IC50 (SMYD3 [1]; [12]): > 10 µM
- IC50 (SMYD3 [2]; read-out: SMYD3 Biochem IC50): > 10 µM
SMILES: COCCNc1ccc(S(=O)(=O)N2CC[C@@H](NC(=O)c3cc(C4CC4)on3)C[C@@H]2C)cn1 [compound 505, 5-cyclopropyl-N-((2S,4R)-1-((6-((2-methoxyethyl)amino)pyridin-3-yl)sulfonyl)-2-methylpiperidin-4-yl)isoxazole-3-carboxamide]

- IC50 (SMYD3 [1]; read-out: SMYD3 Cell IC50*): 0.351 µM
- IC50 (SMYD3 [2]; read-out: SMYD3 Biochem IC50*): 0.0387 µM
SMILES: C[C@H]1C[C@@H](NC(=O)c2cc(C3CC3)on2)CCN1S(=O)(=O)N1C[C@H]2CC[C@@H](C1)[C@@H]2N [compound 932, N-((2S,4S)-1-(((1R,5S,8R)-8-amino-3-azabicyclo[3.2.1]octan-3-yl)sulfonyl)-2-methylpiperidin-4-yl)-5-cyclopropylisoxazole-3-carboxamide]

SMILES: CN(C)CCNCCS(=O)(=O)N1[C@@H]2CC[C@H]1C[C@@H](NC(=O)c1cc(C3CC3)on1)C2 [compound 599, 5-cyclopropyl-N-((1R,3r,5S)-8-((2-((2-(dimethylamino)ethyl)amino)ethyl)sulfonyl)-8-azabicyclo[3.2.1]octan-3-yl)isoxazole-3-carboxamide]
- IC50 (SMYD3 [1]; [3]): 0.213 µM
- IC50 (SMYD3 [2]; [4]): 0.0135 µM

- IC50 (SMYD3 [1]; [7]): 1.82 µM
- IC50 (SMYD3 [2]; [8]): 0.319 µM
SMILES: NC[C@@H](Cc1ccccc1)C(=O)N1CCC(NC(=O)c2cc(C3CC3)on2)CC1 [compound 10, (R)-N-(1-(3-amino-2-benzylpropanoyl)piperidin-4-yl)-5-cyclopropylisoxazole-3-carboxamide]

SMILES: O=C(N[C@H]1C[C@H]2CC[C@@H](C1)N2S(=O)(=O)N1CCC(NCCO)CC1)c1cc(C2CC2)on1 [compound 792, 5-cyclopropyl-N-((1R,3r,5S)-8-((4-((2-hydroxyethyl)amino)piperidin-1-yl)sulfonyl)-8-azabicyclo[3.2.1]octan-3-yl)isoxazole-3-carboxamide]
- IC50 (SMYD3 [1]; read-out: SMYD3 Cell IC50*): 0.0449 µM
- IC50 (SMYD3 [2]; read-out: SMYD3 Biochem IC50*): 0.00185 µM

- IC50 (SMYD3 [1]; [11]): > 40 µM
- IC50 (SMYD3 [2]; [8]): > 10 µM
SMILES: C[C@H]1C[C@@H](NC(=O)c2cc(C3CC3)on2)CCN1C(=O)c1ccc2[nH]cnc2c1 [compound 340, N-((2S,4S)-1-(1H-benzo[d]imidazole-5-carbonyl)-2-methylpiperidin-4-yl)-5-cyclopropylisoxazole-3-carboxamide]

SMILES: O=C(N[C@H]1C[C@H]2CC[C@@H](C1)N2S(=O)(=O)N1CC2CCC(C1)N2CCO)c1cc(C2CC2)on1 [compound 881, 5-cyclopropyl-N-((1R,3r,5S)-8-((8-(2-hydroxyethyl)-3,8-diazabicyclo[3.2.1]octan-3-yl)sulfonyl)-8-azabicyclo[3.2.1]octan-3-yl)isoxazole-3-carboxamide]
- IC50 (SMYD3 [1]; read-out: SMYD3 Cell IC50*): 0.0689 µM
- IC50 (SMYD3 [2]; read-out: SMYD3 Biochem IC50*): 0.0109 µM

- IC50 (SMYD3 [1]; [5]): 0.229 µM
- IC50 (SMYD3 [2]; [6]): 0.0304 µM
SMILES: C[C@H]1CN(S(=O)(=O)CC2CCNCC2)[C@@H](C)C[C@H]1NC(=O)c1cc(C2CC2)on1 [compound 632, 5-cyclopropyl-N-((2S,4R,5S)-2,5-dimethyl-1-((piperidin-4-ylmethyl)sulfonyl)piperidin-4-yl)isoxazole-3-carboxamide]

SMILES: CN(C1CCNCC1)S(=O)(=O)N1[C@@H]2CCC[C@H]1C[C@@H](NC(=O)c1cc(C3CC3)on1)C2 [compound 678]
- IC50 (SMYD3 [1]; [5]): 2.66 µM
- IC50 (SMYD3 [2]; [6]): 0.113 µM

Source: patent US10577363B2, “Substituted piperidine compounds” (EPIZYME, INC., priority 2014, dated 2020)
